Experimental data taken from ChEMBL document CHEMBL1144238, “Identification and SAR around N-{2-[4-(2,3-dihydro-benzo[1,4]dioxin-2-ylmethyl)-[1,4]diazepan-1-yl]-ethyl}-2-phenoxy-nicotinamide, a selective alpha2C adrenergic receptor antagonist” (Bioorg Med Chem Lett, 2008).
pKi: −log10 of the molar value.

Legend:
Cerebrospinal fluid [1] = assay: Drug level in Wistar Kyoto rat cerebro spinal fluid at 10 mg/kg, sc; format: ADME, organism-based; parameters: dose 10 mg/kg, route subcutaneous; conditions: in vivo
[2] = biological target: 5-hydroxytryptamine receptor 2A (Homo sapiens) (UniProt P28223); assay: Binding affinity to human 5HT2A receptor
[3] = biological target: D(3) dopamine receptor (Homo sapiens) (UniProt P35462); assay: Binding affinity to human dopamine D3 receptor
[4] = biological target: 5-hydroxytryptamine receptor 7 (Homo sapiens) (UniProt P34969); assay: Binding affinity to human 5HT7 receptor
[5] = biological target: Sodium-dependent noradrenaline transporter (Homo sapiens) (UniProt P23975); assay: Binding affinity to human NET
Cerebrospinal fluid [6] = assay: Drug level in Wistar Kyoto rat cerebro spinal fluid at 3 mg/kg, sc; format: ADME, organism-based; parameters: dose 3 mg/kg, route subcutaneous; conditions: in vivo
Brain [7] = assay: Drug level in Wistar Kyoto rat brain at 10 mg/kg, sc; format: ADME, organism-based; parameters: dose 10 mg/kg, route subcutaneous; conditions: in vivo
[8] = biological target: Alpha-2C adrenergic receptor (Rattus norvegicus) (UniProt P22086); assay: Binding affinity to rat adrenergic Alpha-2C receptor by radioligand binding assay
[9] = biological target: D(4) dopamine receptor (Homo sapiens) (UniProt P21917); assay: Binding affinity to human dopamine D4 receptor at 1 uM
[10] = biological target: T1, Alpha-2A adrenergic receptor (Homo sapiens, UniProt P08913); assay: Binding affinity at human recombinant adrenergic alpha2A receptor expressed in CHO cells by radioligand binding assay; format: cell-based
T1 sequence (P08913 whole entry): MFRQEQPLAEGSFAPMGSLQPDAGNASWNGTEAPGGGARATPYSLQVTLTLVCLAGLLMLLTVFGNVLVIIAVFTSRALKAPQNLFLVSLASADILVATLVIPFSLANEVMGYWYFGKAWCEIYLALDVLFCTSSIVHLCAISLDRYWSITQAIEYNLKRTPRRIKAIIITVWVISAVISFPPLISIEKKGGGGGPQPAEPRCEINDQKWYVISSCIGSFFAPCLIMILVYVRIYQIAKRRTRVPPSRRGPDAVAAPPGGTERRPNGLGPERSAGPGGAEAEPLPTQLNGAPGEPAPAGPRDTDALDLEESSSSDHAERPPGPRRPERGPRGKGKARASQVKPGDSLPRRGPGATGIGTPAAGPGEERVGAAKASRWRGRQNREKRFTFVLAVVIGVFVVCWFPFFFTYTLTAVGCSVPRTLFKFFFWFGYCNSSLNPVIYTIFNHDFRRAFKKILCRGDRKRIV

Plasma [11] = assay: Drug level in Wistar Kyoto rat plasma at 30 mg/kg, sc; format: ADME, organism-based; parameters: dose 30 mg/kg, route subcutaneous; conditions: in vivo
[12] = biological target: Histamine H1 receptor (Homo sapiens) (UniProt P35367); assay: Binding affinity to human histamine H1 receptor 1 uM
[13] = biological target: T2, Alpha-2C adrenergic receptor (Homo sapiens, UniProt P18825); assay: Binding affinity at human recombinant adrenergic Alpha-2C receptor expressed in CHO cells by radioligand binding assay; format: cell-based
T2 sequence (P18825 whole entry): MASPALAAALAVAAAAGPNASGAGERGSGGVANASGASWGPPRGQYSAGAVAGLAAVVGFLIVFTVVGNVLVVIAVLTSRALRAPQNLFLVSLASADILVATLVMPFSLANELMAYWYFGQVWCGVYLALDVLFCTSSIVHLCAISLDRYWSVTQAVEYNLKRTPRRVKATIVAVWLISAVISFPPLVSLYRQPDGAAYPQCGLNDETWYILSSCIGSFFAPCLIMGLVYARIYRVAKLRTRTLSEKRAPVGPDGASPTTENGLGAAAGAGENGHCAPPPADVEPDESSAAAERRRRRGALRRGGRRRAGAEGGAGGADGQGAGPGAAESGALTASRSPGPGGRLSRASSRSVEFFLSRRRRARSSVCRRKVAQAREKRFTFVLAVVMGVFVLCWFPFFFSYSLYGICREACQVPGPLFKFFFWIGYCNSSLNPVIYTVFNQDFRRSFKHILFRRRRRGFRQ

Homo sapiens [14] = species: Homo sapiens; assay: Selectivity for human recombinant adrenergic Alpha-2C receptor over human recombinant adrenergic alpha2B receptor by radioligand binding assay
[15] = biological target: D(2) dopamine receptor (Homo sapiens) (UniProt P14416); assay: Binding affinity to human dopamine D2 receptor
Brain [16] = assay: Drug level in Wistar Kyoto rat brain at 30 mg/kg, sc; format: ADME, organism-based; parameters: dose 30 mg/kg, route subcutaneous; conditions: in vivo
Plasma [17] = assay: Drug level in Wistar Kyoto rat plasma at 3 mg/kg, sc; format: ADME, organism-based; parameters: dose 3 mg/kg, route subcutaneous; conditions: in vivo
[18] = biological target: 5-hydroxytryptamine receptor 2B (Homo sapiens) (UniProt P41595); assay: Binding affinity to human 5HT2B receptor
[19] = biological target: T2, Alpha-2C adrenergic receptor; assay: Antagonist activity at human recombinant adrenergic Alpha-2C receptor expressed in CHO cells assessed as inhibition of NE-induced calcium mobilization by FLIPR; format: functional, cell-based
[20] = biological target: Sodium-dependent serotonin transporter (Homo sapiens) (UniProt P31645); assay: Binding affinity to human SERT
[21] = biological target: Sodium-dependent dopamine transporter (Homo sapiens) (UniProt Q01959); assay: Binding affinity to human DAT
[22] = biological target: Histamine H2 receptor (Homo sapiens) (UniProt P25021); assay: Binding affinity to human histamine H2 receptor
[23] = biological target: Alpha-2B adrenergic receptor (Rattus norvegicus) (UniProt P19328); assay: Binding affinity to rat adrenergic alpha2B receptor by radioligand binding assay
[24] = biological target: T3, Alpha-2B adrenergic receptor (Homo sapiens, UniProt P18089); assay: Antagonist activity at human recombinant adrenergic alpha2B receptor expressed in CHO cells assessed as inhibition of NE-induced calcium mobilization by FLIPR; format: functional, cell-based
T3 sequence (P18089 whole entry): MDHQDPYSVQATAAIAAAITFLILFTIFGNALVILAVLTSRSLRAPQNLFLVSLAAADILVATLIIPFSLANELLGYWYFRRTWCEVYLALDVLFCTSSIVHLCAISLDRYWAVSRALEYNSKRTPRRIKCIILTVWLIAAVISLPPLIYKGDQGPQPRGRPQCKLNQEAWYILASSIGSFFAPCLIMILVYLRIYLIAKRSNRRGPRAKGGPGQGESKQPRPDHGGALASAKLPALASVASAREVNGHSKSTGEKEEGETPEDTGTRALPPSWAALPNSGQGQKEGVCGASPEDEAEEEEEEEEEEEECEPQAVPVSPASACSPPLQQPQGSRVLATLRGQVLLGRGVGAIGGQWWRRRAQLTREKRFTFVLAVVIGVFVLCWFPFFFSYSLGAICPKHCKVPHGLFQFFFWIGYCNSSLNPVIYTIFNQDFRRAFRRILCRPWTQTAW

Homo sapiens [25] = species: Homo sapiens; assay: Selectivity human recombinant adrenergic Alpha-2C receptor over human recombinant adrenergic alpha2B receptor by FLIPR
[26] = biological target: Alpha-1A adrenergic receptor (Homo sapiens) (UniProt P35348); assay: Binding affinity to human adrenergic alpha1A receptor
Cerebrospinal fluid [27] = assay: Drug level in Wistar Kyoto rat cerebro spinal fluid at 30 mg/kg, sc; format: ADME, organism-based; parameters: dose 30 mg/kg, route subcutaneous; conditions: in vivo
[28] = biological target: Muscarinic acetylcholine receptor M3 (Homo sapiens) (UniProt P20309); assay: Binding affinity to human muscarinic M3 receptor at 10 uM
Homo sapiens [29] = species: Homo sapiens; assay: Selectivity for human recombinant adrenergic Alpha-2C receptor over human recombinant adrenergic alpha2A receptor by radioligand binding assay
[30] = biological target: Alpha-2A adrenergic receptor (Rattus norvegicus) (UniProt P22909); assay: Binding affinity to rat adrenergic alpha2A receptor by radioligand binding assay
Plasma [31] = assay: Drug level in Wistar Kyoto rat plasma at 10 mg/kg, sc; format: ADME, organism-based; parameters: dose 10 mg/kg, route subcutaneous; conditions: in vivo
[32] = biological target: T1, Alpha-2A adrenergic receptor; assay: Antagonist activity at human recombinant adrenergic alpha2A receptor expressed in CHO cells assessed as inhibition of NE-induced calcium mobilization by FLIPR; format: functional, cell-based
Homo sapiens [33] = species: Homo sapiens; assay: Selectivity human recombinant adrenergic Alpha-2C receptor over human recombinant adrenergic alpha2A receptor by FLIPR
[34] = biological target: 5-hydroxytryptamine receptor 1A (Homo sapiens) (UniProt P08908); assay: Binding affinity to human 5HT1A receptor
Brain [35] = assay: Drug level in Wistar Kyoto rat brain at 3 mg/kg, sc; format: ADME, organism-based; parameters: dose 3 mg/kg, route subcutaneous; conditions: in vivo
[36] = biological target: Muscarinic acetylcholine receptor M2 (Homo sapiens) (UniProt P08172); assay: Binding affinity to human muscarinic M2 receptor
[37] = biological target: T3, Alpha-2B adrenergic receptor; assay: Binding affinity at human recombinant adrenergic alpha2B receptor expressed in CHO cells by radioligand binding assay; format: cell-based
[38] = biological target: 5-hydroxytryptamine receptor 1B (Homo sapiens) (UniProt P28222); assay: Binding affinity to human 5HT1B receptor at 10 uM
[39] = biological target: Muscarinic acetylcholine receptor M1 (Homo sapiens) (UniProt P11229); assay: Binding affinity to human muscarinic M1 receptor at 10 uM

Chain of Sodium-dependent serotonin transporter (Homo sapiens) (P31645 whole entry, looked up): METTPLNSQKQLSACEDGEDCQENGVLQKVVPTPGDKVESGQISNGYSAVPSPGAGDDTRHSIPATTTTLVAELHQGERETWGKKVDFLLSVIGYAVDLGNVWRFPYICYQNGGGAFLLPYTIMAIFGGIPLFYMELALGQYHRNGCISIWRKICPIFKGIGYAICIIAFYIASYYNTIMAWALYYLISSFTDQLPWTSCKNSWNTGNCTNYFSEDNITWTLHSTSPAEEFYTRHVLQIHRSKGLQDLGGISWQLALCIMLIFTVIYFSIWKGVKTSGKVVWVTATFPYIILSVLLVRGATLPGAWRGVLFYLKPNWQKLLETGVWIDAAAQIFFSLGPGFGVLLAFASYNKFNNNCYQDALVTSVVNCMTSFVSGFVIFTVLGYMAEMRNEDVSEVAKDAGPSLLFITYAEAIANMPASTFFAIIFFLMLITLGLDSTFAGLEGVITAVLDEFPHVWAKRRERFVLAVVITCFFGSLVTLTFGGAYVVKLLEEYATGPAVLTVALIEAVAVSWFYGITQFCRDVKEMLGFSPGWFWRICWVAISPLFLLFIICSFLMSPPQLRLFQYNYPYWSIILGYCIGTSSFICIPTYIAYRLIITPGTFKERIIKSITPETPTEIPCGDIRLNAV
Chain of Sodium-dependent dopamine transporter (Homo sapiens) (Q01959 whole entry): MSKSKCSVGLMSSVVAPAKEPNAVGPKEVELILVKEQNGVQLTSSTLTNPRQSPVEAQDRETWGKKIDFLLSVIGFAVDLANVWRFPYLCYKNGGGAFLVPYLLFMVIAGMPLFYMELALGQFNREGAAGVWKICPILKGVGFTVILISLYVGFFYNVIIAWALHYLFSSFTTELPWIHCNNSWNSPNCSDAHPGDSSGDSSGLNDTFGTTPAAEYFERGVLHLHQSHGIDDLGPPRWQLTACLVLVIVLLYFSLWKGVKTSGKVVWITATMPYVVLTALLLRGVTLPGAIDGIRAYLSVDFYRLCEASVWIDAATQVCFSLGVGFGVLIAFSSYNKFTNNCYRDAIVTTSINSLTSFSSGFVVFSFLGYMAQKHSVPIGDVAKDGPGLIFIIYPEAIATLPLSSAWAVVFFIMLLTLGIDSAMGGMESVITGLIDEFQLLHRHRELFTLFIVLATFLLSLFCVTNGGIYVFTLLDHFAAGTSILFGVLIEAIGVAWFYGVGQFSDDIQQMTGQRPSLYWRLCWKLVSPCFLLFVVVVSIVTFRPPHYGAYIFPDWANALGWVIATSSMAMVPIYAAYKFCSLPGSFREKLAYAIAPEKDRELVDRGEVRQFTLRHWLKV
Chain of Histamine H2 receptor (Homo sapiens) (P25021 whole entry): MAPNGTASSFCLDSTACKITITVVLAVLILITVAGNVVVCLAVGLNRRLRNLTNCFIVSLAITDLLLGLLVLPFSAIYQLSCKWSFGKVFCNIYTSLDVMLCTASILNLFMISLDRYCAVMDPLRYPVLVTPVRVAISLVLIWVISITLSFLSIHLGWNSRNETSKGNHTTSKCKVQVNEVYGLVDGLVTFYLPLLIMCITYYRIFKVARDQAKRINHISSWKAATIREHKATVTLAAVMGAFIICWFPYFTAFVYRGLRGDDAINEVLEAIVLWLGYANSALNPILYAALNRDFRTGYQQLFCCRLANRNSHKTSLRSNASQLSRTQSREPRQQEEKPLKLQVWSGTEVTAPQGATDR
Chain of Muscarinic acetylcholine receptor M2 (Homo sapiens) (P08172 whole entry): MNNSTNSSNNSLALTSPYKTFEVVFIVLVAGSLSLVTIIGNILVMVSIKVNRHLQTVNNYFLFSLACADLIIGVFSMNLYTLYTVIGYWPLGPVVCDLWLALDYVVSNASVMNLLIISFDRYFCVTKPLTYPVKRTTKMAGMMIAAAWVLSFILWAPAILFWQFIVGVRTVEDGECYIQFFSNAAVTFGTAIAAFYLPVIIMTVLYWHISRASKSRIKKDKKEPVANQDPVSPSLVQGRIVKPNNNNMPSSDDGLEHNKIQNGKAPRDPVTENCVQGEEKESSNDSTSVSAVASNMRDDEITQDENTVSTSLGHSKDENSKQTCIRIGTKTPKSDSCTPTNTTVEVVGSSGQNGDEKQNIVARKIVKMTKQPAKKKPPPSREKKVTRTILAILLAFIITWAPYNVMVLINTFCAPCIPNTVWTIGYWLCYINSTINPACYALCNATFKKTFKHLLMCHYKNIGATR
Chain of 5-hydroxytryptamine receptor 1B (Homo sapiens) (P28222 whole entry): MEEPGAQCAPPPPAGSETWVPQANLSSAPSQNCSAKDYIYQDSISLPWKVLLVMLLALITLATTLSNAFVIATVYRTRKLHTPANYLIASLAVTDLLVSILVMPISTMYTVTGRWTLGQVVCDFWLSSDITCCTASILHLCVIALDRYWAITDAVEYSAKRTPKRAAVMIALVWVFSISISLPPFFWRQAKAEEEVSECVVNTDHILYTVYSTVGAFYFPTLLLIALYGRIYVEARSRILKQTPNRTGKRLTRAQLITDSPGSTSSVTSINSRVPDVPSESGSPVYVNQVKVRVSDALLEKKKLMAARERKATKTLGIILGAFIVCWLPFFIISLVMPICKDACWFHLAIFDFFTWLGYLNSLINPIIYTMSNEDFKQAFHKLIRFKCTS
Chain of 5-hydroxytryptamine receptor 2A (Homo sapiens) (P28223 whole entry): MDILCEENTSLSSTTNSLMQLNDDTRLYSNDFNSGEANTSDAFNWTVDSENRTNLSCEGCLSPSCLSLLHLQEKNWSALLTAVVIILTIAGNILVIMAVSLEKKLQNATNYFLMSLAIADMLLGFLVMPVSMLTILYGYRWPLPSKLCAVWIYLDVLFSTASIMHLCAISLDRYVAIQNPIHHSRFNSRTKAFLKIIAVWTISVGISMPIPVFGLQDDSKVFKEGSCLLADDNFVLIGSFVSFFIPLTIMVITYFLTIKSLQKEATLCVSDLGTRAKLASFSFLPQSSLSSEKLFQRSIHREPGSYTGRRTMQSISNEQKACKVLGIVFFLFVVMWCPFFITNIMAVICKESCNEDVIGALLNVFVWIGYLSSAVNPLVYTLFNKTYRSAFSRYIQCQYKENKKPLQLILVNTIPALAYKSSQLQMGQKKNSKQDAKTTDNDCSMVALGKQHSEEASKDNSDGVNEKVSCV
Chain of Alpha-2B adrenergic receptor (Rattus norvegicus) (P19328 whole entry): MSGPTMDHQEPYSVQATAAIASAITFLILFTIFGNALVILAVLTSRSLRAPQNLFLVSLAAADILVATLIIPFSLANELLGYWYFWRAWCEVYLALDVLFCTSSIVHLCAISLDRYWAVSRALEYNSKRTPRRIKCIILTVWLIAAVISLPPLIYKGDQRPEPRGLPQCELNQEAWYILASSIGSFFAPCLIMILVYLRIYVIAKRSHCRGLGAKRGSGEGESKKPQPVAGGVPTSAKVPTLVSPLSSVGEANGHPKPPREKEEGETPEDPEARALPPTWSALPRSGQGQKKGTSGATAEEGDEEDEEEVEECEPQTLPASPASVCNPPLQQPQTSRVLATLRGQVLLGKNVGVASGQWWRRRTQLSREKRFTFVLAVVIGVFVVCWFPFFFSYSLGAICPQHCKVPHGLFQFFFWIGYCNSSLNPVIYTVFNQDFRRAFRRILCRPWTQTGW
Chain of 5-hydroxytryptamine receptor 2B (Homo sapiens) (P41595 whole entry): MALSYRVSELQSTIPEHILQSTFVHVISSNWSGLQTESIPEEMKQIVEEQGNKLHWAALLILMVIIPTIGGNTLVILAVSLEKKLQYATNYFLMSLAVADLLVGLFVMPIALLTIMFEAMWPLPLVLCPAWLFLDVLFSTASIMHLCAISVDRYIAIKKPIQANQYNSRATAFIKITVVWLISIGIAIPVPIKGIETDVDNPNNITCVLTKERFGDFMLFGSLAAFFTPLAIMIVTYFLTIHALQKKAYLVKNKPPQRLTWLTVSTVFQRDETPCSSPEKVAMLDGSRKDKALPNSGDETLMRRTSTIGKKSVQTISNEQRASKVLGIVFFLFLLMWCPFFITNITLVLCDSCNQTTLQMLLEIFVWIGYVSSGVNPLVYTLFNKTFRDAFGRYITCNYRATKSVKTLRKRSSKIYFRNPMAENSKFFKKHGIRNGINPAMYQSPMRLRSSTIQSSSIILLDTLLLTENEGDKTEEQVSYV
Chain of Muscarinic acetylcholine receptor M3 (Homo sapiens) (P20309 whole entry, looked up): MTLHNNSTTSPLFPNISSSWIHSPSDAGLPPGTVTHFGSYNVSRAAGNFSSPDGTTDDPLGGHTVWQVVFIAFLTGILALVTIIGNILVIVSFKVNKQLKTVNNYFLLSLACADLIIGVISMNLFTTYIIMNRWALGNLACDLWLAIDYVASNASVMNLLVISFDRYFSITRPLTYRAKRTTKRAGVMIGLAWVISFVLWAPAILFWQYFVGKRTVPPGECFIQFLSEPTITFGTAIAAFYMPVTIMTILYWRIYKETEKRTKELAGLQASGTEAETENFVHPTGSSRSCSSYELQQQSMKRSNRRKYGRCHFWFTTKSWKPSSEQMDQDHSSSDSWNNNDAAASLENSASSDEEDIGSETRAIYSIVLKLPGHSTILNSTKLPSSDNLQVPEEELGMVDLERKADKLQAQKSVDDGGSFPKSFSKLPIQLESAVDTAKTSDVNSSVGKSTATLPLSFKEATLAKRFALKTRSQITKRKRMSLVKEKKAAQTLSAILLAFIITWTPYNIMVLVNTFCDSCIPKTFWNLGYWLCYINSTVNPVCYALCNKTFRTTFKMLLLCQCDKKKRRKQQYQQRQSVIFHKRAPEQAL
Chain of 5-hydroxytryptamine receptor 1A (Homo sapiens) (P08908 whole entry): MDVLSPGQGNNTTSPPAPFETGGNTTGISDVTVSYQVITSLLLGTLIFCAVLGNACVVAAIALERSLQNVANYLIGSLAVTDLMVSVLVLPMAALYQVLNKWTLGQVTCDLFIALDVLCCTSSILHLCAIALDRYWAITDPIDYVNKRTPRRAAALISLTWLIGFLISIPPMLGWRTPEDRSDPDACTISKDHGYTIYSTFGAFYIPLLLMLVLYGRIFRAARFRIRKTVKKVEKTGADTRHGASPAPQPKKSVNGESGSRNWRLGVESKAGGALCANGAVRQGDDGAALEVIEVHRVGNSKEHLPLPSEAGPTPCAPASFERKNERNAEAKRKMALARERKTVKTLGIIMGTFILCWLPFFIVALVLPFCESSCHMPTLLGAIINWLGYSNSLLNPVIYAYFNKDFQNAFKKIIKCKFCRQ

O=C(NCCN1CCCN(C[C@H]2COc3ccccc3O2)CC1)c1cccnc1Oc1ccccc1
Drug uptake (Cerebrospinal fluid [1]): 26.9 ng/mL | Activity [2]: 2400 nM | Activity [3]: 75 nM | Activity [4]: 530 nM | Activity [5]: 1790 nM | Drug uptake (Cerebrospinal fluid [6]): 7.39 ng/mL | Drug uptake (Brain [7]): 630 ngequiv/g | Activity [8]: 1.7 nM | Activity [9]: 10% | pKi [10]: 7.03 | Cp (Plasma [11]): 6190 ng/mL | Activity [12]: 33% | pKi [13]: 9.05 | Ratio Ki (Homo sapiens [14]): 16 | Activity [15]: 820 nM | Drug uptake (Brain [16]): 2230 ngequiv/g | Cp (Plasma [17]): 744 ng/mL | Activity [18]: 690 nM | pKi [19]: 8.72 | Activity [20]: 1480 nM | Activity [21]: 3.48 µM | Activity [22]: 1900 nM | Activity [23]: 7.6 nM | pKi [24]: 7.50 | Ratio Ki (Homo sapiens [25]): 16 | Activity [26]: 59 nM | Drug uptake (Cerebrospinal fluid [27]): 113 ng/mL | Activity [28]: 27% | Ratio Ki (Homo sapiens [29]): 106 | Activity [30]: 177 nM | Cp (Plasma [31]): 2100 ng/mL | pKi [32]: < 6.35 | Ratio Ki (Homo sapiens [33]): > 232 | Activity [34]: 141 nM | Drug uptake (Brain [35]): 173 ngequiv/g | Activity [36]: 1600 nM | pKi [37]: 7.84 | Activity [38]: 44% | Activity [39]: 4%
